Experimental data taken from article PMC7031696 (Cell chemical biology, 2019).
Read-outs that look alike come from different tables or passages of the source.

Key:
[1] = test system: 3D7-A10 or Dd2-B2 parasites; assay: Resistance selections (single step, pulsing or ramping); assay type: cell-based, Plasmodium falciparum
[2] = test system: asynchronous 3D7-A10 parasite cultures; assay: Standard 72-h exposure asexual blood stage susceptibility assay (IC50^72h); assay type: cell-based, Plasmodium falciparum; conditions: Plasmodium falciparum, 3D7, 72 h, read-out: Overall (72hr assay) Mean IC50 (IC50^72h)
[3] = test system: 3D7-MR4 trophozoite parasite-infected RBCs; assay: Metabolomic profiling (hydrophilic metabolite changes, UHPLC-MS); assay type: cell-based, Plasmodium falciparum
[4] = test system: synchronized Plasmodium falciparum parasites; assay: Microscopical study of cell morphology after 8-h exposures (Figure S4); assay type: cell-based; conditions: 3× the IC50^8h of the most sensitive life stage, 8-h intervals
[5] = test system: Plasmodium falciparum 3D7-A10 parasites; assay: Stage specificity assay (8-h exposure of synchronized stages, IC50^8h); assay type: cell-based; conditions: for IC50: Plasmodium falciparum
[6] = 10 × IC50^72h, 2.5 hr, trophozoites

`CC(C)(C)OC(=O)N1CCN(c2ccccc2NC(=O)c2cccc(C(F)(F)F)c2Oc2ccc(F)cc2)CC1` [MMV030666] was tested, and the “outcome of ramping resistance selection” value ([1]; 3D7-A10, 1 × to 1.8 × IC50^72h over 3 months) was “did not produce resistance”, the “outcome of resistance selections (continuous exposure or pulsing)” value ([1]; 5 × 10^8 to 1 × 10^9 3D7-A10 or Dd2-B2 parasites, 3–6 × IC50^72h) was “failed to yield resistance” and the “minimum inocula of resistance” value ([1]; from failed selections in 3D7-A10 / Dd2-B2) was “above 5 × 10^8 parasites”. The IC50 [2] was 0.462 µM, the “metabolic signature: increases in the pyrimidine precursors dihydroorotate and N-carbamoyl-L-aspartate (mETC disruption)” value [3, 6] was “observed” and the “orotidine 5-P levels” value [3, 6] was “decreased”. The “peptide levels (hemoglobin catabolism signature)” value [3, 6] was “decreased peptide levels”, the “Log2(fold changes) 3-phosphoglycerate” value ([3]; metabolite 3-phosphoglycerate, log2 fold change) was 0.0028 and the “Log2(fold changes) 4-Pyridoxic acid” value ([3]; metabolite 4-Pyridoxic acid, log2 fold change) was -0.4279. For the same compound, the “Log2(fold changes) 4-aminobutyrate” value ([3]; metabolite 4-aminobutyrate, log2 fold change) was -0.0634, the “Log2(fold changes) 4-phosphopantetheine” value ([3]; metabolite 4-phosphopantetheine, log2 fold change) was -0.3320 and the “Log2(fold changes) 4-phosphopantothenate” value ([3]; metabolite 4-phosphopantothenate, log2 fold change) was -1.0807. For the same compound, the “Log2(fold changes) 5-aminopentanoic acid” value ([3]; metabolite 5-aminopentanoic acid, log2 fold change) was 0.0000, the “Log2(fold changes) 5-methyl-THF” value ([3]; metabolite 5-methyl-THF, log2 fold change) was 0.0000 and the “Log2(fold changes) 5-phosphoribosyl-1-pyrophosphate” value ([3]; metabolite 5-phosphoribosyl-1-pyrophosphate, log2 fold change) was -0.6917. The “Log2(fold changes) 6-phospho-D-gluconate” value ([3]; metabolite 6-phospho-D-gluconate, log2 fold change) was -0.3165, the “Log2(fold change) HVDD” value ([3]; metabolite HVDD) was -4.9061 and the “Log2(fold change) Hydroxyisocaproic acid” value ([3]; metabolite Hydroxyisocaproic acid) was 0.0000. The “Log2(fold change) IDP” value ([3]; metabolite IDP) was 0.0000, the “Log2(fold change) IMP” value ([3]; metabolite IMP) was 0.0932 and the “Log2(fold change) Inositol” value ([3]; metabolite Inositol) was 0.0000. For the same compound, the “Log2(fold change) Isopentyl-PP” value ([3]; metabolite Isopentyl-PP) was 0.0000, the “Log2(fold change) L-arginino-succinate” value ([3]; metabolite L-arginino-succinate) was -1.0911 and the “Log2(fold change) LD” value ([3]; metabolite LD) was -0.6358. The “Log2(fold change) Myristoyl/tetradecanoyl-CoA” value ([3]; metabolite Myristoyl/tetradecanoyl-CoA) was 0.0000, the “Log2(fold change) N-Acetyl-L-alanine” value ([3]; metabolite N-Acetyl-L-alanine) was -0.5215 and the “Log2(fold change) N-acetyl-L-ornithine” value ([3]; metabolite N-acetyl-L-ornithine) was 0.0000. For the same compound, the “Log2(fold change) N-acetyl-glucosamine-1/6-phosphate” value ([3]; metabolite N-acetyl-glucosamine-1/6-phosphate) was -0.1279, the “Log2(fold change) N-acetyl-glutamate” value ([3]; metabolite N-acetyl-glutamate) was 0.2373 and the “Log2(fold change) N-acetyl-glutamine” value ([3]; metabolite N-acetyl-glutamine) was -0.0526. For the same compound, the “Log2(fold change) N-carbamoyl-L-aspartate” value ([3]; metabolite N-carbamoyl-L-aspartate) was 1.9816, the “Log2(fold change) NAD+” value ([3]; metabolite NAD+) was -0.1975 and the “Log2(fold change) NADH” value ([3]; metabolite NADH) was 1.6901. For the same compound, the “Log2(fold change) NADP+” value ([3]; metabolite NADP+) was -0.2280, the “Log2(fold change) NADPH” value ([3]; metabolite NADPH) was 1.2462 and the “Log2(fold change) O-acetyl-L-serine” value ([3]; metabolite O-acetyl-L-serine) was 0.0000. The “Log2(fold change) Octoluse 8/1P” value ([3]; metabolite Octoluse 8/1P) was 0.2225, the “Log2(fold change) Octoluse Bisphosphate” value ([3]; metabolite Octoluse Bisphosphate) was -1.0839 and the “Log2(fold change) PD” value ([3]; metabolite PD) was -3.4872. The “Log2(fold change) PE” value ([3]; metabolite PE) was -3.3751, the “Log2(fold change) PEE” value ([3]; metabolite PEE) was -2.7815 and the “Log2(fold change) PEEK” value ([3]; metabolite PEEK) was -2.6677. For the same compound, the “Log2(fold change) PVNF” value ([3]; metabolite PVNF) was -4.4222, the “Log2(fold change) Pyroglutamic acid” value ([3]; metabolite Pyroglutamic acid) was 0.3360 and the “Log2(fold change) Pyrophosphate” value ([3]; metabolite Pyrophosphate) was 0.0000. For the same compound, the “Log2(fold change) Ribose-5-phosphate” value ([3]; metabolite Ribose-5-phosphate) was -0.7810, the “Log2(fold change) S-adenosyl-L-homocysteine” value ([3]; metabolite S-adenosyl-L-homocysteine) was 0.2136 and the “Log2(fold change) S-adenosyl-L-methioninamine” value ([3]; metabolite S-adenosyl-L-methioninamine) was 0.0000. The “Log2(fold change) S-adenosyl-L-methionine” value ([3]; metabolite S-adenosyl-L-methionine) was 0.0000, the “Log2(fold change) S-methyl-5'-thioadenosine” value ([3]; metabolite S-methyl-5'-thioadenosine) was 0.3369 and the “Log2(fold change) SD” value ([3]; metabolite SD) was -2.5205. The “Log2(fold change) SDL” value ([3]; metabolite SDL) was -4.4795, the “Log2(fold change) SID” value ([3]; metabolite SID) was 0.0000 and the “Log2(fold change) Sedoheptulose bisphosphate” value ([3]; metabolite Sedoheptulose bisphosphate) was -0.5250. The “Log2(fold change) Thiamine pyrophosphate” value ([3]; metabolite Thiamine pyrophosphate) was -0.1162, the “Log2(fold changes) UDP-D-glucose” value ([3]; metabolite UDP-D-glucose, log2 fold change) was -0.1835 and the “Log2(fold changes) UDP-D-glucuronate” value ([3]; metabolite UDP-D-glucuronate, log2 fold change) was -0.4871. For the same compound, the “Log2(fold changes) UDP-N-acetyl-glucosamine” value ([3]; metabolite UDP-N-acetyl-glucosamine, log2 fold change) was -0.5093, the “Log2(fold changes) UDP” value ([3]; metabolite UDP, log2 fold change) was -1.4928 and the “Log2(fold changes) UMP” value ([3]; metabolite UMP, log2 fold change) was -0.5598. The “Log2(fold changes) UTP” value ([3]; metabolite UTP, log2 fold change) was -1.9407, the “Log2(fold change) hydroxyphenylpyruvate” value ([3]; metabolite hydroxyphenylpyruvate) was 0.0000 and the “Log2(fold change) hydroxyproline/Aminolevulinate” value ([3]; metabolite hydroxyproline/Aminolevulinate) was -0.0744. The “Log2(fold change) hypoxanthine” value ([3]; metabolite hypoxanthine) was 0.1169, the “Log2(fold change) indole” value ([3]; metabolite indole) was 0.3440 and the “Log2(fold change) inosine” value ([3]; metabolite inosine) was -0.2932. The “Log2(fold change) isoleucine” value ([3]; metabolite isoleucine) was -0.1542, the “Log2(fold change) lactate” value ([3]; metabolite lactate) was -0.3562 and the “Log2(fold change) leucine” value ([3]; metabolite leucine) was -0.3099. For the same compound, the “Log2(fold change) lysine” value ([3]; metabolite lysine) was 0.0000, the “Log2(fold change) malate” value ([3]; metabolite malate) was -1.0993 and the “Log2(fold change) maleic acid” value ([3]; metabolite maleic acid) was -0.3336. The “Log2(fold change) methionine” value ([3]; metabolite methionine) was -0.1260, the “Log2(fold change) myo-inositol” value ([3]; metabolite myo-inositol) was 0.0000 and the “Log2(fold change) nicotinamide mononucleotide” value ([3]; metabolite nicotinamide mononucleotide) was 0.0000. For the same compound, the “Log2(fold change) nicotinate” value ([3]; metabolite nicotinate) was -0.1069, the “Log2(fold change) ornithine” value ([3]; metabolite ornithine) was 0.0000 and the “Log2(fold change) orotate” value ([3]; metabolite orotate) was -0.1643. For the same compound, the “Log2(fold change) orotidine-5'-phosphate” value ([3]; metabolite orotidine-5'-phosphate) was -1.8500, the “Log2(fold change) oxaloacetate” value ([3]; metabolite oxaloacetate) was 0.0000 and the “Log2(fold change) p-aminobenzoate” value ([3]; metabolite p-aminobenzoate) was 0.0000. The “Log2(fold change) p-hydroxybenzoate” value ([3]; metabolite p-hydroxybenzoate) was 0.0000, the “Log2(fold change) pantothenate” value ([3]; metabolite pantothenate) was -0.0587 and the “Log2(fold change) phenylalanine” value ([3]; metabolite phenylalanine) was -0.5281. For the same compound, the “Log2(fold change) phenylpyruvate” value ([3]; metabolite phenylpyruvate) was 0.0000, the “Log2(fold change) phosphoenolpyruvate” value ([3]; metabolite phosphoenolpyruvate) was 0.0797 and the “Log2(fold change) prephenate” value ([3]; metabolite prephenate) was 0.0000. The “Log2(fold change) proline” value ([3]; metabolite proline) was -0.4182, the “Log2(fold change) pyridoxine” value ([3]; metabolite pyridoxine) was 0.0000 and the “Log2(fold change) pyruvate” value ([3]; metabolite pyruvate) was -1.3359. For the same compound, the “Log2(fold change) riboflavin” value ([3]; metabolite riboflavin) was -0.6446, the “Log2(fold change) ribose” value ([3]; metabolite ribose) was 0.0000 and the “Log2(fold change) ribose-phosphate” value ([3]; metabolite ribose-phosphate) was 0.0000. The “Log2(fold change) ribulose-5-phosphate” value ([3]; metabolite ribulose-5-phosphate) was -0.3252, the “Log2(fold change) serine” value ([3]; metabolite serine) was -0.1988 and the “Log2(fold change) sn-glycerol-3-phosphate” value ([3]; metabolite sn-glycerol-3-phosphate) was 0.6292. For the same compound, the “Log2(fold change) succinate/Methylmalonic acid” value ([3]; metabolite succinate/Methylmalonic acid) was -1.4071, the “Log2(fold change) succinyl-CoA/methylmalonyl-CoA” value ([3]; metabolite succinyl-CoA/methylmalonyl-CoA) was -0.7249 and the “Log2(fold change) taurine” value ([3]; metabolite taurine) was 0.0000. For the same compound, the “Log2(fold change) thiamine” value ([3]; metabolite thiamine) was 0.0000, the “Log2(fold change) threonine/homoserine” value ([3]; metabolite threonine/homoserine) was -0.8029 and the “Log2(fold change) thymidine” value ([3]; metabolite thymidine) was 0.0000. For the same compound, the “Log2(fold changes) thymine” value ([3]; metabolite thymine, log2 fold change) was 0.0000, the “Log2(fold changes) trehalose-6-Phosphate” value ([3]; metabolite trehalose-6-Phosphate, log2 fold change) was 0.0000 and the “Log2(fold changes) tryptophan” value ([3]; metabolite tryptophan, log2 fold change) was 0.1993. The “Log2(fold changes) tyrosine” value ([3]; metabolite tyrosine, log2 fold change) was -0.2219, the “Log2(fold changes) uridine” value ([3]; metabolite uridine, log2 fold change) was 0.0000 and the digestive vacuole morphology [4] was “bloated digestive vacuoles”. The “most susceptible stage by cell morphology” value [4] was “late trophozoite stage”, the “Ratio lowest IC50 8hr/IC50 72hr” value ([5]; 3D7-A10) was 1.9 and the “killing in stage specificity assay” value ([5]; 8-h exposures, survival curves) was “incomplete killing”. The IC50 ([5]; 3D7, read-out: Early rings Mean IC50 (IC50^8h), 8-h exposure 0–8 hr, 3D7-A10, survival at 60 h) was 10.3 µM, the IC50 ([5]; 3D7, read-out: Early trophozoites Mean IC50 (IC50^8h), 8-h exposure 16–24 hr, 3D7-A10, survival at 60 h) was 5.12 µM and the IC50 ([5]; 3D7, read-out: Late rings Mean IC50 (IC50^8h), 8-h exposure 8–16 hr, 3D7-A10, survival at 60 h) was 11.4 µM. The IC50 ([5]; 3D7, read-out: Late trophozoites Mean IC50 (IC50^8h), 8-h exposure 24–32 hr, 3D7-A10, survival at 60 h) was 0.858 µM, the IC50 ([5]; 3D7, read-out: Schizonts Mean IC50 (IC50^8h), 8-h exposure 32–40 hr, 3D7-A10, survival at 60 h) was 4.19 µM and the “Stage of peak activity (Figure 6)” value ([5]; period when the parasite was most susceptible (lowest IC50^8h)) was “late trophozoites”. For the same compound, the “Peak Activity (Table S1)” value ([5]; stage(s) with the lowest IC50^8h) was “Late Trophs”.
